Laboratory results: ChEMBL document CHEMBL1201862, “PubChem BioAssay data set” (2004)
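Method: 48-hour compound exposure of cells in 96-well plates, five concentrations, linear interpolation of endpoints. GI50: concentration for 50% inhibition of growth.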 The source made the active and inactive calls. Cut-off read from the data, not from the text of the source: active = GI50 up to about 1.1 µM and inactive = higher.

Key:
Experiment in all cases: NCI-60 cell line screen, 48 h
786-0 = tested on: 786-0
A498 = tested on: A498
A549 = tested on: A549
ACHN = tested on: ACHN
BT-549 = tested on: BT-549
CCRF-CEM = tested on: CCRF-CEM
COLO 205 = tested on: COLO 205
DU-145 = tested on: DU-145
EKVX = tested on: EKVX
HCT-116 = tested on: HCT-116
HCT-15 = tested on: HCT-15
HL-60 = tested on: HL-60
HOP-62 = tested on: HOP-62
HOP-92 = tested on: HOP-92
HT-29 = tested on: HT-29
Hs-578T = tested on: Hs-578T
IGROV-1 = tested on: IGROV-1
K562 = tested on: K562
KM12 = tested on: KM12
LOX IMVI = tested on: LOX IMVI
M14 = tested on: M14
MCF7 = tested on: MCF7
MDA-MB-231 = tested on: MDA-MB-231
MDA-MB-435 = tested on: MDA-MB-435
MDA-N = tested on: MDA-N
MOLT-4 = tested on: MOLT-4
Malme-3M = tested on: Malme-3M
NCI-H226 = tested on: NCI-H226
NCI-H23 = tested on: NCI-H23
NCI-H460 = tested on: NCI-H460
NCI/ADR-RES = tested on: NCI/ADR-RES
OVCAR-3 = tested on: OVCAR-3
OVCAR-4 = tested on: OVCAR-4
OVCAR-5 = tested on: OVCAR-5
OVCAR-8 = tested on: OVCAR-8
PC-3 = tested on: PC-3
RPMI-8226 = tested on: RPMI-8226
RXF 393 = tested on: RXF 393
SF-268 = tested on: SF-268
SF-295 = tested on: SF-295
SF-539 = tested on: SF-539
SK-MEL-28 = tested on: SK-MEL-28
SK-MEL-2 = tested on: SK-MEL-2
SK-MEL-5 = tested on: SK-MEL-5
SK-OV-3 = tested on: SK-OV-3
SN12C = tested on: SN12C
SNB-19 = tested on: SNB-19
SNB-75 = tested on: SNB-75
SR = tested on: SR
SW-620 = tested on: SW-620
T47D = tested on: T47D
TK-10 = tested on: TK-10
U-251 = tested on: U-251
UACC-257 = tested on: UACC-257
UACC-62 = tested on: UACC-62
UO-31 = tested on: UO-31
CAKI-1 = tested on: CAKI-1
HCC 2998 = tested on: HCC 2998
NCI-H522 = tested on: NCI-H522

`CCN1C[C@]2(C)CC[C@H](OC)C34C5C[C@@H]6[C@@H](OC)C[C@@](OC)(C5[C@H]6OCc5ccccc5)C(C13)[C@H](OC(C)=O)[C@@H]42` (some centres undefined) was tested, and the GI50 (786-0) was > 100 µM (inactive), the GI50 (A498) was > 100 µM (inactive) and the GI50 (A549) was > 100 µM (inactive). The GI50 (ACHN) was > 100 µM (inactive), the GI50 (BT-549) was > 100 µM (inactive) and the GI50 (CCRF-CEM) was > 100 µM (inactive). For the same molecule, the GI50 (COLO 205) was 75.2 µM (inactive), the GI50 (DU-145) was > 100 µM (inactive) and the GI50 (EKVX) was > 100 µM (inactive). The GI50 (HCT-116) was > 100 µM (inactive), the GI50 (HCT-15) was > 100 µM and the GI50 (HL-60) was 6.95 µM (inactive). For the same molecule, the GI50 (HOP-62) was > 100 µM (inactive), the GI50 (HOP-92) was 38.6 µM (inactive) and the GI50 (HT-29) was > 100 µM (inactive). For the same molecule, the GI50 (Hs-578T) was > 100 µM (inactive), the GI50 (IGROV-1) was > 100 µM (inactive) and the GI50 (K562) was > 100 µM (inactive). The GI50 (KM12) was > 100 µM (inactive), the GI50 (LOX IMVI) was > 100 µM (inactive) and the GI50 (M14) was 97.1 µM (inactive). For the same molecule, the GI50 (MCF7) was > 100 µM (inactive), the GI50 (MDA-MB-231) was > 100 µM (inactive) and the GI50 (MDA-MB-435) was > 100 µM (inactive). For the same molecule, the GI50 (MDA-N) was > 100 µM (inactive), the GI50 (MOLT-4) was 73.6 µM (inactive) and the GI50 (Malme-3M) was > 100 µM (inactive). The GI50 (NCI-H226) was > 100 µM (inactive), the GI50 (NCI-H23) was > 100 µM (inactive) and the GI50 (NCI-H460) was 59.8 µM (inactive). For the same molecule, the GI50 (NCI/ADR-RES) was > 100 µM (inactive), the GI50 (OVCAR-3) was 64.3 µM (inactive) and the GI50 (OVCAR-4) was > 100 µM (inactive). For the same molecule, the GI50 (OVCAR-5) was > 100 µM (inactive), the GI50 (OVCAR-8) was > 100 µM (inactive) and the GI50 (PC-3) was 82.8 µM (inactive). For the same molecule, the GI50 (RPMI-8226) was > 100 µM (inactive), the GI50 (RXF 393) was > 100 µM (inactive) and the GI50 (SF-268) was > 100 µM (inactive). The GI50 (SF-295) was > 100 µM (inactive), the GI50 (SF-539) was > 100 µM (inactive) and the GI50 (SK-MEL-28) was > 100 µM (inactive). For the same molecule, the GI50 (SK-MEL-2) was > 100 µM (inactive), the GI50 (SK-MEL-5) was > 100 µM (inactive) and the GI50 (SK-OV-3) was > 100 µM (inactive). The GI50 (SN12C) was > 100 µM (inactive), the GI50 (SNB-19) was > 100 µM (inactive) and the GI50 (SNB-75) was 1.18 µM (inactive). The GI50 (SR) was > 100 µM (inactive), the GI50 (SW-620) was > 100 µM (inactive) and the GI50 (T47D) was > 100 µM (inactive). For the same molecule, the GI50 (TK-10) was > 100 µM (inactive), the GI50 (U-251) was > 100 µM (inactive) and the GI50 (UACC-257) was 45.8 µM (inactive). For the same molecule, the GI50 (UACC-62) was > 100 µM (inactive) and the GI50 (UO-31) was > 100 µM (inactive).
`COC(=O)[C@]1(c2cc3ccccc3[nH]2)CC2CN(CC(=O)N(C)OC)C1C1OC(C)(C)OC21` (some centres undefined) was tested, and the GI50 (786-0) was 45.9 µM (inactive), the GI50 (A498) was 24 µM (inactive) and the GI50 (A549) was 33.3 µM (inactive). The GI50 (ACHN) was 42.7 µM (inactive), the GI50 (BT-549) was 43 µM (inactive) and the GI50 (CAKI-1) was 54.2 µM (inactive). The GI50 (CCRF-CEM) was 53.8 µM (inactive), the GI50 (COLO 205) was 31.7 µM (inactive) and the GI50 (DU-145) was > 100 µM (inactive). For the same molecule, the GI50 (EKVX) was 63.5 µM (inactive), the GI50 (HCC 2998) was 38 µM (inactive) and the GI50 (HCT-116) was 32.4 µM (inactive). The GI50 (HCT-15) was 39.9 µM, the GI50 (HL-60) was 27.2 µM (inactive) and the GI50 (HOP-62) was 83.9 µM (inactive). The GI50 (HOP-92) was 47.8 µM (inactive), the GI50 (HT-29) was 61.9 µM (inactive) and the GI50 (Hs-578T) was > 100 µM (inactive). The GI50 (IGROV-1) was 59.3 µM (inactive), the GI50 (K562) was 35.2 µM (inactive) and the GI50 (KM12) was 29.6 µM (inactive). For the same molecule, the GI50 (LOX IMVI) was 59.7 µM (inactive), the GI50 (M14) was 41.3 µM (inactive) and the GI50 (MCF7) was 36.1 µM (inactive). For the same molecule, the GI50 (MDA-MB-231) was 31.6 µM (inactive), the GI50 (MDA-MB-435) was 44.2 µM (inactive) and the GI50 (MDA-N) was 49.5 µM (inactive). The GI50 (MOLT-4) was 8.32 µM (inactive), the GI50 (Malme-3M) was > 100 µM (inactive) and the GI50 (NCI-H226) was 56 µM (inactive). The GI50 (NCI-H23) was 45.8 µM (inactive), the GI50 (NCI-H460) was 39 µM (inactive) and the GI50 (NCI-H522) was > 100 µM (inactive). The GI50 (NCI/ADR-RES) was 41.6 µM (inactive), the GI50 (OVCAR-3) was 41.8 µM (inactive) and the GI50 (OVCAR-4) was 36.9 µM (inactive). The GI50 (OVCAR-5) was > 100 µM (inactive), the GI50 (OVCAR-8) was 75.3 µM (inactive) and the GI50 (PC-3) was 42.5 µM (inactive). The GI50 (RPMI-8226) was 23.2 µM (inactive), the GI50 (RXF 393) was 45.8 µM (inactive) and the GI50 (SF-268) was > 100 µM (inactive). The GI50 (SF-295) was 36.1 µM (inactive), the GI50 (SF-539) was > 100 µM (inactive) and the GI50 (SK-MEL-28) was > 100 µM (inactive). For the same molecule, the GI50 (SK-MEL-2) was 74.8 µM (inactive), the GI50 (SK-MEL-5) was 31 µM (inactive) and the GI50 (SK-OV-3) was > 100 µM (inactive). For the same molecule, the GI50 (SN12C) was 55 µM (inactive), the GI50 (SNB-19) was 92.9 µM (inactive) and the GI50 (SNB-75) was > 100 µM (inactive). For the same molecule, the GI50 (SW-620) was 93.3 µM (inactive), the GI50 (T47D) was 28.6 µM (inactive) and the GI50 (TK-10) was 56.6 µM (inactive). The GI50 (U-251) was 54.3 µM (inactive), the GI50 (UACC-257) was 32 µM (inactive) and the GI50 (UACC-62) was 61.7 µM (inactive). For the same molecule, the GI50 (UO-31) was 37.5 µM (inactive).
